Assay results: patent publication US10028509B2 (priority 2012, dated 2018)
Read-outs that look alike come from different tables or passages of the source.

Legend:
Format in all cases: in vivo
[1] = test system: Phytophthora infestans; settings: tomatoes, preventive spray, evaluated 3 days after inoculation
[2] = test system: Alternaria solani; assay: Alternaria Test (Tomatoes)/Preventive; settings: preventive spray, 100 ppm a.i., evaluated 3 days after inoculation
[3] = test system: Venturia inaequalis; assay: Venturia Test (Apples)/Preventive; settings: preventive spray, evaluated 10 days after inoculation

## O=C(NCc1ncc(C(F)(F)F)cc1Cl)c1c(Cl)cccc1Cl [F143 fluopicolide, fluopicolide]
[1]; Table A1, 5 ppm a.i.
  Efficacy in % found: 32%
[2]
  Efficacy in % found: 0%

## N#Cc1c(Cl)c(Cl)c(Cl)c(C#N)c1Cl [F155 chlorothalonil, chlorothalonil]
[3]; 10 ppm a.i.
  Efficacy in % found: 43%

## mancozeb [F174 mancozeb]
[1]; Table A2, 10 ppm a.i.
  Efficacy in % found: 15%
[3]; 20 ppm a.i.
  Efficacy in % found: 24%

## propineb [F180 propineb]
[1]; Table A2, 10 ppm a.i.
  Efficacy in % found: 23%
